Data published in patent publication US10787452B2 (Vertex Pharmaceuticals Incorporated, priority 2012, dated 2020).

Tested on: HCT116 colorectal cancer cells
Assay: Cisplatin sensitization assay (96 h cell viability MTS);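 also: compound concentration needed to lower the Cisplatin-alone IC50 by a set fold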
Format: cell-based
Details: 96 h MTS, compound plus Cisplatin
Procedure, shortened: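 Viability was measured by MTS after 96 h co-exposure of HCT116 colorectal cells to a full-matrix dilution grid of compound and cisplatin (2-fold steps, highest final concentration 10 μM, added together). Plates were kept at 37 °C in 5% CO2, and the MTS reagent was incubated for 1 h before reading.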

SMILES | Cisplatin Sensitization Assay
CN1CC2CN(c3c(Cl)cncc3NC(=O)c3c(N)nn4cc(F)cnc34)CC2C1 (stereo not drawn) [I-N-286, 2-amino-N-(5-chloro-4-(5-methylhexahydropyrrolo[3,4-c]pyrrol-2(1H)-yl)pyridin-3-yl)-6-fluoropyrazolo[1,5-a]pyrimidine-3-carboxamide] | ++ (Compounds with a Cisplatin sensitization value >0.02 μM but <0.2 μM are marked with “++.”)
Nc1nn2cc(F)cnc2c1C(=O)Nc1cnccc1-c1ccc(C(=O)N2CCC(N3CCCC3)CC2)nc1 [I-C-53, 2-amino-6-fluoro-N-(6-(4-(pyrrolidin-1-yl)piperidine-1-carbonyl)-[3,4′-bipyridin]-3′-yl)pyrazolo[1,5-a]pyrimidine-3-carboxamide] | +++ (Compounds with a Cisplatin sensitization value of <0.02 μM are marked with “+++.”)
CN1CCN(c2c(C#N)cncc2NC(=O)c2c(N)nn3cc(F)cnc23)CC1 [I-N-113, 2-amino-N-(5-cyano-4-(4-methylpiperazin-1-yl)pyridin-3-yl)-6-fluoropyrazolo[1,5-a]pyrimidine-3-carboxamide] | + (Compounds with a Cisplatin sensitization value >0.2 μM but <5 μM are marked with “+.”)
CS(=O)(=O)C1CN(C(=O)C2CCN(c3ccncc3NC(=O)c3c(N)nn4cc(F)cnc34)CC2)C1 [I-G-89, 2-amino-6-fluoro-N-(4-(4-(3-(methylsulfonyl)azetidine-1-carbonyl)piperidin-1-yl)pyridin-3-yl)pyrazolo[1,5-a]pyrimidine-3-carboxamide] | + (Compounds with a Cisplatin sensitization value >0.2 μM but <5 μM are marked with “+.”)
Nc1nn2cc(F)cnc2c1C(=O)Nc1cncc(F)c1N1CCC(N2CCCC2=O)CC1 [I-N-147, 2-amino-6-fluoro-N-(5-fluoro-4-(4-(2-oxopyrrolidin-1-yl)piperidin-1-yl)pyridin-3-yl)pyrazolo[1,5-a]pyrimidine-3-carboxamide] | +++ (Compounds with a Cisplatin sensitization value of <0.02 μM are marked with “+++.”)
NCC1CCN(c2ccncc2NC(=O)c2c(N)nn3cc(Cl)cnc23)CC1 [I-N-91, 2-amino-N-(4-(4-(aminomethyl)piperidin-1-yl)pyridin-3-yl)-6-chloropyrazolo[1,5-a]pyrimidine-3-carboxamide] | ++ (Compounds with a Cisplatin sensitization value >0.02 μM but <0.2 μM are marked with “++.”)
Nc1nn2cc(Cl)cnc2c1C(=O)Nc1cnccc1N1CCC(N2CCC23COC3)CC1 [I-N-109, N-(4-(4-(6-oxa-1-azaspiro[3.3]heptan-1-yl)piperidin-1-yl)pyridin-3-yl)-2-amino-6-chloropyrazolo[1,5-a]pyrimidine-3-carboxamide] | +++ (Compounds with a Cisplatin sensitization value of <0.02 μM are marked with “+++.”)
Nc1nn2cc(F)cnc2c1C(=O)Nc1cnccc1C1CCN(C(=O)C23CCN(CC2)CC3)CC1 [I-C-18, 2-amino-6-fluoro-N-(4-(1-(quinuclidine-4-carbonyl)piperidin-4-yl)pyridin-3-yl)pyrazolo[1,5-a]pyrimidine-3-carboxamide] | + (Compounds with a Cisplatin sensitization value >0.2 μM but <5 μM are marked with “+.”)
N#CCc1cnc2c(C(=O)Nc3cnccc3Oc3ccccc3)c(N)nn2c1 [I-O-25, 2-amino-6-(cyanomethyl)-N-(4-phenoxypyridin-3-yl)pyrazolo[1,5-a]pyrimidine-3-carboxamide] | +++ (Compounds with a Cisplatin sensitization value of <0.02 μM are marked with “+++.”)
Nc1nn2cc(F)cnc2c1C(=O)Nc1cnccc1N1CCN2[C@@H](CCS2(=O)=O)C1 [I-N-247, (S)-2-amino-N-(4-(1,1-dioxidotetrahydro-2H-isothiazolo[2,3-a]pyrazin-5(3H)-yl)pyridin-3-yl)-6-fluoropyrazolo[1,5-a]pyrimidine-3-carboxamide] | +++ (Compounds with a Cisplatin sensitization value of <0.02 μM are marked with “+++.”)
CNCCc1cnn(-c2ccncc2NC(=O)c2c(N)nn3cc(F)cnc23)c1 [I-N-8, 2-amino-6-fluoro-N-(4-(4-(2-(methylamino)ethyl)-1H-pyrazol-1-yl)pyridin-3-yl)pyrazolo[1,5-a]pyrimidine-3-carboxamide] | + (Compounds with a Cisplatin sensitization value >0.2 μM but <5 μM are marked with “+.”)
CN1CCC(Oc2c(F)cncc2NC(=O)c2c(N)nn3cc(F)cnc23)CC1 [I-O-89, 2-amino-6-fluoro-N-(5-fluoro-4-((1-methylpiperidin-4-yl)oxy)pyridin-3-yl)pyrazolo[1,5-a]pyrimidine-3-carboxamide] | ++ (Compounds with a Cisplatin sensitization value >0.02 μM but <0.2 μM are marked with “++.”)
CN1CCN(C(=O)c2ccc(-c3ccncc3NC(=O)c3c(N)nn4cc(F)cnc34)cc2)CC1 [I-C-25, 2-amino-6-fluoro-N-(4-(4-(4-methylpiperazine-1-carbonyl)phenyl)pyridin-3-yl)pyrazolo[1,5-a]pyrimidine-3-carboxamide] | +++ (Compounds with a Cisplatin sensitization value of <0.02 μM are marked with “+++.”)
CN1CCN(C(=O)c2ccc(-c3c(F)cncc3NC(=O)c3c(N)nn4cc(F)cnc34)cc2)CC1 [I-C-43, 2-amino-6-fluoro-N-(5-fluoro-4-(4-(4-methylpiperazine-1-carbonyl)phenyl)pyridin-3-yl)pyrazolo[1,5-a]pyrimidine-3-carboxamide] | +++ (Compounds with a Cisplatin sensitization value of <0.02 μM are marked with “+++.”)
CNC(=O)C1CCN(c2c(F)cncc2NC(=O)c2c(N)nn3cc(F)cnc23)CC1 [I-G-33, 2-amino-6-fluoro-N-(5-fluoro-4-(4-(methylcarbamoyl)piperidin-1-yl)pyridin-3-yl)pyrazolo[1,5-a]pyrimidine-3-carboxamide] | +++ (Compounds with a Cisplatin sensitization value of <0.02 μM are marked with “+++.”)
Nc1nn2cc(F)cnc2c1C(=O)Nc1cncc(F)c1N1CCC(C(=O)N2CCC(N3CCCCC3)C2)CC1 (stereo not drawn) [I-G-64, 2-amino-6-fluoro-N-(5-fluoro-4-(4-(3-(piperidin-1-yl)pyrrolidine-1-carbonyl)piperidin-1-yl)pyridin-3-yl)pyrazolo[1,5-a]pyrimidine-3-carboxamide] | +++ (Compounds with a Cisplatin sensitization value of <0.02 μM are marked with “+++.”)
N#CC1(C(=O)N2CCC(c3ccncc3NC(=O)c3c(N)nn4cc(F)cnc34)CC2)CC1 [I-C-71, 2-amino-N-(4-(1-(1-cyanocyclopropanecarbonyl)piperidin-4-yl)pyridin-3-yl)-6-fluoropyrazolo[1,5-a]pyrimidine-3-carboxamide] | +++ (Compounds with a Cisplatin sensitization value of <0.02 μM are marked with “+++.”)
C[N+]1([O-])CCN(C(=O)C2CCN(c3c(F)cncc3NC(=O)c3c(N)nn4cc(F)cnc34)CC2)CC1 [I-G-95, 4-(1-(3-(2-amino-6-fluoropyrazolo[1,5-a]pyrimidine-3-carboxamido)-5-fluoropyridin-4-yl)piperidine-4-carbonyl)-1-methylpiperazine 1-oxide] | +++ (Compounds with a Cisplatin sensitization value of <0.02 μM are marked with “+++.”)
